Experimental data published in article PMC3818701 (The Pediatric infectious disease journal, 2013).
Like-named read-outs stand apart in the source and are kept apart here. Numbered stars: 1 amine (or outer) side, 2 acyl side, 3 side chain; on linkers, the order of the positions; unused ones are H or OH. Bridge positions count the residues as written; N and C are the ends. Square brackets hold non-standard residues; d marks the D form. Peptide text beside a SMILES is read from it. * marks the point of attachment. hTyr(3S-OH,4S-OH,3'-OSO3H) = N[C@H](C(=O)O)[C@H](O)[C@@H](O)c1ccc(O)c(OS(=O)(=O)O)c1; Orn(4R-OH,5R-OH) = O=C([C@H](C[C@@H](O)[C@@H](O)N[*:3])N[*:1])[*:2]; Pro(3S-OH,4S-Me) = C[C@H]1CN[C@H](C(=O)O)[C@H]1O; X1 = CCCCCOc1ccc(-c2cc(-c3ccc(C(=O)*)cc3)no2)cc1; Gln(3R-OH) = NC(=O)C[C@@H](O)[C@H](N)C(=O)O; Hyp = O=C(O)[C@@H]1C[C@@H](O)CN1

Key:
[1] = cited from earlier work
[2] = adults, cited from earlier work
[3] = Plasma micafungin pharmacokinetics on day 7, Studies 2101 and 2102; type: in vivo, human; settings: for Cmax / tmax / AUCtau / CLss / CLss/wt: day 7 plasma
Safety assessments = type: in vivo, human; settings: for AE leading to discontinuation / Any AE / Any SAE / Deaths: SAF, number of children (%)
[4] = cited from earlier work; for Cmax / Mean weight-adjusted CLss: children; for Mean AUCtau: febrile, neutropenic children with deep mycoses
[5] = pooled analysis of Phase I, II, III trials, 296 children
[6] = Study 2101, 3 mg/kg i.v. once daily, 6–11 years (n = 4), min–max
[7] = Study 2101, 3 mg/kg i.v. once daily, 12–16 years (n = 8), median
[8] = Study 2101, 3 mg/kg i.v. once daily, 12–16 years (n = 8), min–max
[9] = Study 2101, 4.5 mg/kg i.v. once daily, 2–5 years (n = 8), median
[10] = Study 2101, 4.5 mg/kg i.v. once daily, 2–5 years (n = 8), min–max
[11] = Study 2101, 4.5 mg/kg i.v. once daily, 6–11 years (n = 3), median
[12] = Study 2101, 4.5 mg/kg i.v. once daily, 6–11 years (n = 3), min–max
[13] = Study 2101, 4.5 mg/kg i.v. once daily, 12–16 years (n = 1), mean
[14] = Study 2101, 4.5 mg/kg i.v. once daily, 12–16 years (n = 1), median
[15] = Study 2101, 3 mg/kg, 6–11 years (n = 13)
[16] = Study 2101, 3 mg/kg, 12–16 years (n = 12)
[17] = Study 2101, 4.5 mg/kg, 2–5 years (n = 31)
[18] = Study 2101, 4.5 mg/kg, 6–11 years (n = 20)
[19] = Study 2102, 4.5 mg/kg, 4 months–<2 years (n = 9)

CCCCCOc1ccc(-c2cc(-c3ccc(C(=O)N[C@H]4C[C@@H](O)[C@@H](O)NC(=O)[C@@H]5[C@@H](O)[C@@H](C)CN5C(=O)[C@H]([C@H](O)CC(N)=O)NC(=O)[C@H]([C@H](O)[C@@H](O)c5ccc(O)c(OS(=O)(=O)O)c5)NC(=O)[C@@H]5C[C@@H](O)CN5C(=O)[C@H]([C@@H](C)O)NC4=O)cc3)no2)cc1 [micafungin] (X1-[Orn(4R-OH,5R-OH)]T[Hyp][hTyr(3S-OH,4S-OH,3'-OSO3H)][Gln(3R-OH)][Pro(3S-OH,4S-Me)]; lactam 1-C)
Overall incidence of liver function abnormalities ([1]; pooled analysis of 3028 adult and pediatric patients): ≤ 3% | Adverse events (AEs) [1, 5]: 92% | Serious adverse events (SAEs) [1, 5]: ~34% | AEs related to micafungin treatment ([1]; pooled analysis, 296 children): 27% | Related AEs/SAEs leading to discontinuation of therapy ([1]; pooled analysis, 296 children): 2% | SAEs related to micafungin treatment ([1]; pooled analysis, n = 14/296 children): 5% | AUCtau ([2]; 100 mg/day): 101.6 µg·h/mL | AUCtau ([2]; 150 mg/day): 166.7 µg·h/mL | Cmax ([3]; Study 2101, 3 mg/kg i.v. once daily, 6–11 years (n = 4), mean (SD), SD): 20.8 (4.1) µg/mL | tmax ([3]; Study 2101, 3 mg/kg i.v. once daily, 6–11 years (n = 4), median): 1.1 h | AUCtau [3, 6]: 191.8 to 300.1 µg·h/mL | CLss [3, 6]: 344.8 to 625.7 mL/h | CLss/wt [3, 6]: 10.0 to 15.4 mL/h/kg | Cmax [3, 6]: 16.8 to 24.8 µg/mL | tmax [3, 6]: 1.0 to 1.2 h | CLss [3, 7]: 757.2 mL/h | tmax [3, 7]: 1.1 h | AUCtau [3, 8]: 158.9 to 240.1 µg·h/mL | CLss [3, 8]: 512.6 to 944.2 mL/h | CLss/wt [3, 8]: 9.5 to 19.0 mL/h/kg | Cmax [3, 8]: 12.2 to 44.5 µg/mL | tmax [3, 8]: 1.0 to 2.0 h | CLss [3, 9]: 222.9 mL/h | Cmax [3, 9]: 21.9 µg/mL | AUCtau [3, 10]: 110.0 to 335.4 µg·h/mL | CLss [3, 10]: 132.7 to 490.9 mL/h | CLss/wt [3, 10]: 13.4 to 40.9 mL/h/kg | Cmax [3, 10]: 8.4 to 28.7 µg/mL | tmax [3, 10]: 1.0 to 2.1 h | AUCtau [3, 11]: 264.4 µg·h/mL | CLss [3, 11]: 332.1 mL/h | Cmax [3, 11]: 20.2 µg/mL | tmax [3, 11]: 2.1 h | AUCtau [3, 12]: 245.7 to 325.2 µg·h/mL | CLss [3, 12]: 255.3 to 384.7 mL/h | CLss/wt [3, 12]: 13.8 to 18.3 mL/h/kg | Cmax [3, 12]: 17.9 to 24.0 µg/mL | tmax [3, 12]: 2.0 to 2.1 h | AUCtau [3, 13]: 339.0 µg·h/mL | CLss [3, 13]: 306.8 mL/h | CLss/wt [3, 13]: 13.3 mL/h/kg | Cmax [3, 13]: 24.9 µg/mL | tmax [3, 13]: 1.1 h | AUCtau [3, 14]: 339.0 µg·h/mL | CLss [3, 14]: 306.8 mL/h | CLss/wt [3, 14]: 13.3 mL/h/kg | Cmax [3, 14]: 24.9 µg/mL | tmax [3, 14]: 1.1 h | CLss/wt, single child with highest value ([3]; Study 2101, 4.5 mg/kg, 2–5 years, single child, day 7): 40.9 mL/h/kg | AUC(0-t) ([3]; human, plasma, iv, 4.5 mg/kg, Mean AUCtau, Study 2102): ~300 µg·h/mL | Deaths considered related to micafungin treatment or to fungal infection (Safety assessments; Studies 2101 and 2102): None | Liver function abnormalities (Safety assessments; Study 2101 (Table 3)): 4–6% | AE leading to discontinuation (Safety assessments; [15]): 0 | Any AE (Safety assessments; [15]): 9 (69) | Any SAE (Safety assessments; [15]): 1 (8) | Deaths (Safety assessments; [15]): 0 | AE leading to discontinuation (Safety assessments; [16]): 2 (17) | Any AE (Safety assessments; [16]): 11 (92) | Any SAE (Safety assessments; [16]): 3 (25) | Deaths (Safety assessments; [16]): 1 (8) | AE leading to discontinuation (Safety assessments; [17]): 1 (3) | Any AE (Safety assessments; [17]): 25 (81) | Any SAE (Safety assessments; [17]): 3 (10) | Deaths (Safety assessments; [17]): 0 | AE leading to discontinuation (Safety assessments; [18]): 1 (5) | Any AE (Safety assessments; [18]): 16 (80) | Any SAE (Safety assessments; [18]): 2 (10) | Deaths (Safety assessments; [18]): 2 (10) | AE leading to discontinuation (Safety assessments; Study 2101, Total (n = 78)): 4 (5) | Any AE (Safety assessments; Study 2101, Total (n = 78)): 62 (80) | Any SAE (Safety assessments; Study 2101, Total (n = 78)): 9 (12) | Deaths (Safety assessments; Study 2101, Total (n = 78)): 3 (4) | AEs that led to permanent discontinuation of micafungin (Safety assessments; Study 2101, four children, all possibly or probably related): 5% | Permanent discontinuation due to hypomagnesemia (Safety assessments; Study 2101, n = 1/78): 1% | Permanent discontinuation due to pyrexia (Safety assessments; Study 2101, n = 1/78): 1% | Permanent discontinuation due to infusion-associated symptoms (Safety assessments; Study 2101, n = 2/78): 3% | SAEs considered related to micafungin treatment (Safety assessments; Study 2101, n = 2/78): 3% | AE considered related to micafungin: hypomagnesemia (Safety assessments; Study 2101, n = 5/78): 6% | Children with SAEs who recovered with no residual effects (Safety assessments; Study 2101, n = 6/9): 67% | AE considered related to micafungin: pyrexia (Safety assessments; Study 2101, n = 7/78): 9% | AE considered related to micafungin: infusion-associated symptoms (hypotension, hypertension, cyanosis) (Safety assessments; Study 2101, n = 9/78): 12% | Children experiencing SAEs other than death (Safety assessments; Study 2101, n = 9/78): 12% | AE vomiting (Safety assessments; Study 2101, n = 10/78): 13% | AE hypokalemia (Safety assessments; Study 2101, n = 11/78): 14% | AE pyrexia (Safety assessments; Study 2101, n = 15/78): 19% | Children experiencing at least one AE (Safety assessments; Study 2101, n = 62/78): 80% | AE leading to discontinuation (Safety assessments; [19]): 2 (22) | Any AE (Safety assessments; [19]): 9 (100) | Any SAE (Safety assessments; [19]): 5 (56) | Deaths (Safety assessments; [19]): 1 (11) | SAEs considered related to micafungin treatment (Safety assessments; Study 2102, n = 1/9 (pathological fracture, possibly related)): 11% | Children with SAEs who recovered with no residual effects (Safety assessments; Study 2102, n = 4/5): 80% | Children experiencing SAEs other than death (Safety assessments; Study 2102, n = 5/9): 56% | Abnormal liver function tests (NOS) considered related to micafungin (Safety assessments; Study 2102, one child of 9): 11% | AEs that led to permanent discontinuation of micafungin (Safety assessments; Study 2102, two children): 22% | Tolerability (Safety assessments; once-daily 3 mg/kg and 4.5 mg/kg, children and adolescents with proven, probable, or suspected Candida infection): well tolerated | Cmax ([4]; 3 mg/kg): 30.4 µg/mL | Mean weight-adjusted CLss ([4]; 3 mg/kg): 17.0 mL/h/kg | Cmax ([4]; 4 mg/kg): 43.5 µg/mL | Mean weight-adjusted CLss ([4]; 4 mg/kg): 14.2 mL/h/kg | Mean AUCtau ([4]; 3 mg/kg): 190.5 µg·h/mL | Mean AUCtau ([4]; 4.0 mg/kg): 301.9 µg·h/mL
